Literature values as cited in US20070042451A1, “Glycine decarboxylase complex as a herbicidal target” (BASF Aktiengesellschaft, priority 2003, published 2007).

System: glycine decarboxylase complex
Conditions: Navarre and Wolpert 1995

In the case of victorine, the “in vitro inhibition of the GDC activity” value is listed as “inhibition of the GDC activity”.
